In US9920295B2, “Bioreactor for isolation of rare cells and methods of use” (The Trustees of the University of Pennsylvania, priority 2012, dated 2018):

Experiments:
MKs = test: In vitro platelet generation from MKs; assay type: cell-based, human; settings: 20 μM for 3 d, then 3 d of no drug
Method: For platelet-activation assays, platelet-sided fraction isolated from either MK culture or NSG blood was resuspended in Tyrode's buffer supplemented with Mg^2+ and Ca^2+, and incubated with indicated agonists for 15 min at 37° C., followed by staining with FITC-conjugated anti-human P-selectin or PAC-1 antibody (BD Bioscience), APC-conjugated anti-human CD41, and in the case of xenograft samples, PE-conjugated anti-mouse CD41 for 15 min at room temperature, followed by fixation with 1.5% paraformaldehyde. Antibody-stained samples were then analyzed by flow cytometry. Platelet number was evaluated by mixing each sample with a defined number (˜10,000 beads per sample) of APC-conjugated beads (BD Bioscience). The number of platelets per sample was evaluated by: number of CD41^+ events/number of APC-bead events multiplied by total known number of APC-bead added per sample.
Transplantation of uncultured human cord-blood CD34^+ cells in immuno-deficient nonobese diabetic (NOD)/SCID mice has been shown previously to yield sustained generation of human platelets (Salles et al., 2009, Blood, 114:5044-5051), but the intravenous delivery route used to date requires a large number of cells for homing and engraftment. Intrabone marrow transplantation was instead used here to more rapidly expose injected cells to the marrow microenvironment per FIG. 1A. […]

BM CD34+-derived cells = test: Live cell imaging of cell division; assay type: cell-based, human
Method: At least 20,000 BM CD34^+-derived cells were put into Ibidi μ-slide VI (Ibidi GmbH) in cell culture medium. Analysis was done in an insulated chamber maintained at 37° C., 5% CO2. A series of images were collected every 5 min for 18 to ˜24 h with an Olympus IX70 inverted microscope with 300 W Xenon lamp illumination using 10× or 20× objectives under bright field. Image stacks were further analyzed by ImageJ to analyze cell division with or without blebbistatin treatment.

[1] = test system: CD34+-derived cells (HSC, MPP, CPP); test: HSC/P numbers on FN-coated gels of different elasticity; assay type: cell-based, human; settings: drug-treated cells
Method: 15-18 mm glass coverslips were treated in order with ethanol, RCA solution (1:1:3 for 15N NH4OH:30% H2O2:dH2O), methylene chloride and 0.1% allyltrichlorosilane solution. To control gel's stiffness, n,n′ methylene-bis-acrylamide and the acrylamide solution was mixed at the ratio of 0.07%:3% for soft gels (0.3 kPa), or the ratio of 0.3%:8% for stiff gels (34 kPa), final concentrations in PBS. ˜25 μl of the mixed solution was polymerized on a coverslip with 10% ammonium persulfate and n,n,n′,n′-tetramethylethylenediamine. During polymerization, gels were covered with another coverslip to obtain a uniform gel surface with the final thickness of ˜100 μm. Different concentrations of FN were then cross-linked with polymerized gels using sulfo-SANFAH (Pierce, Rockford, Ill.) by UV-crosslinking Thickness of gels and relative FN concentrations were verified by confocal microscopy. It is assumed that most FN from the solution was attached to gels (>70%). FN-coated gels were then treated with UV in PBS for at least 1 hr before use in cell culture.

NMM-IIA = biological target: T1, NMM-IIA (Homo sapiens, UniProt P35579); test: NMM-IIA phosphorylation in THP-1 cells (IP, MS, flow cytometry); assay type: cell-based
T1 construct: endogenous in cells; host or cells: THP-1 cells
Method: In general, cells were washed with ice-cold PBS and lysed on ice with lysis buffer (150 mM sodium chloride, 1% Nonidet P-40, 1% protease inhibitor mixture, 1 mM activated sodium orthovanadate, 50 mM Tris at pH 8.0) for 30 min. For immunoprecipitation (IP), 30 mM of pervanadate solution was prepared by mixing sodium orthovanadate with H2O2 for 15 min at room temperature. At least 1×10^7 THP-1 cells were treated with pervanadate with or without blebbistatin at 37° C. for 15 min. Cells were then washed, lysed, and whole-cleared lysate was mixed with anti-NMM-IIA antibody at 4° C. overnight, followed by incubation with Protein G (Invitrogen) for 1 h. For Western blot, whole lysate or IP proteins were separated on 4% to 12% SDS/PAGE gels (NuPAGE 4-12% Bis-Tris, Invitrogen). The proteins were then transferred to a polyvinylidene fluoride (PVDF) membrane with an iBlot Gel Transfer Device (Invitrogen), followed by blocking with 5% nonfat dry milk solution for 1 h. Incubation with primary antibodies was done at 4° C. overnight with 1:1,000β-actin, 1:250 pTyr, and 1:1,000 NMM-IIA antibodies. After washing, the membrane was incubated with 1:2,500 anti-rabbit and 1:1,000 anti-mouse HRP-conjugated IgG antibodies at room temperature for 1 h. […]

T1 sequence (P35579 2-1960 limits assumed): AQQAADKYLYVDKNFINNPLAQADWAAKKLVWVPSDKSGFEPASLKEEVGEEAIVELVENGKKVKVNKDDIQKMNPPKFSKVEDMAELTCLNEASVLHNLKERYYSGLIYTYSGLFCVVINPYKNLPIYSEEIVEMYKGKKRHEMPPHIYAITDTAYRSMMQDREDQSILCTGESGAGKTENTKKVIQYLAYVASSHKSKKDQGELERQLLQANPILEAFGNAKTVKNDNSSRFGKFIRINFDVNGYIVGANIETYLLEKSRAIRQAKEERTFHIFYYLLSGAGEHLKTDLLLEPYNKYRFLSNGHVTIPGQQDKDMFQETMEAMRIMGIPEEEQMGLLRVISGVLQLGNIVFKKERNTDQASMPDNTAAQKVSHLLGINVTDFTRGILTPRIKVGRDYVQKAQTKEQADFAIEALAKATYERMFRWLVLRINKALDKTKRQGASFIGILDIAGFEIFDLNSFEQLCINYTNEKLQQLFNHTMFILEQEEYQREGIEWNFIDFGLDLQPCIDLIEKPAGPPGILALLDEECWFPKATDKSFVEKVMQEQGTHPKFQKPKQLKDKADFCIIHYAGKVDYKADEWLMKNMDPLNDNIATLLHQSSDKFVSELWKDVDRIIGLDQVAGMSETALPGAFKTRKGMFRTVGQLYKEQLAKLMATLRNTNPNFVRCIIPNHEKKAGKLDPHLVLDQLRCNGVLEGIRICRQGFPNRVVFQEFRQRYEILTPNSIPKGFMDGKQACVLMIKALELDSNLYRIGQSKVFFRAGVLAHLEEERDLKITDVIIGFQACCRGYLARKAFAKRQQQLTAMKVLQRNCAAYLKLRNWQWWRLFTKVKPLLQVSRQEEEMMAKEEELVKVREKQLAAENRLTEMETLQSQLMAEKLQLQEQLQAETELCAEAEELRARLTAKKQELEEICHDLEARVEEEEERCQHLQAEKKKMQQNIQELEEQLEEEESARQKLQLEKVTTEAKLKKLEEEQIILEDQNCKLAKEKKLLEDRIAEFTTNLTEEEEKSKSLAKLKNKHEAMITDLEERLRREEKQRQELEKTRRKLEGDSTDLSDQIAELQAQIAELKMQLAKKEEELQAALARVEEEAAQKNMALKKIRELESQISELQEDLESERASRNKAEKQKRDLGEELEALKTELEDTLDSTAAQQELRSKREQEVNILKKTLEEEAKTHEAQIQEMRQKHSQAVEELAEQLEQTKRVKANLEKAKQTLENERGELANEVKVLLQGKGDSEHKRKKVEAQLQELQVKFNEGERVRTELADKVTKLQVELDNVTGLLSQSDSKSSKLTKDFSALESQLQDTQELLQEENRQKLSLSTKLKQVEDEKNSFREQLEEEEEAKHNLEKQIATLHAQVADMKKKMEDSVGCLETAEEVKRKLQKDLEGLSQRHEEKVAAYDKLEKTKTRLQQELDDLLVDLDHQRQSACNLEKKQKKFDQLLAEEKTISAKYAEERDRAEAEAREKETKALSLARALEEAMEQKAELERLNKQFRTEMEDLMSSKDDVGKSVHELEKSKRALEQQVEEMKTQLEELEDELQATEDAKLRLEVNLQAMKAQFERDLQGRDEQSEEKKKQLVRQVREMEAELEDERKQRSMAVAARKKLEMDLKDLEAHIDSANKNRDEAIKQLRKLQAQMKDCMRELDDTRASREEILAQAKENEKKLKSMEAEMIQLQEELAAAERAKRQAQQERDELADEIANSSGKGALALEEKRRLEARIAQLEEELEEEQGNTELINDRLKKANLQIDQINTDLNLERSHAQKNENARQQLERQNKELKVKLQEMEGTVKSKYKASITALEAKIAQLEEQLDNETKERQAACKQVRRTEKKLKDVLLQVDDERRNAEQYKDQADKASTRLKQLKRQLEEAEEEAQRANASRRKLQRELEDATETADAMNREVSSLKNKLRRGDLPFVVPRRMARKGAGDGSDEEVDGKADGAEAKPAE
T1 sequence (P60660 2-151 partner limits assumed): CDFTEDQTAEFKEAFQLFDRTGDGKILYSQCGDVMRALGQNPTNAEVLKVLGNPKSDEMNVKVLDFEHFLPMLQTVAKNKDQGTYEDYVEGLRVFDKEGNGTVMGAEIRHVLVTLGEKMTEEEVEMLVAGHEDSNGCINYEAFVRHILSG
T1 sequence (O14950 2-172 partner limits assumed): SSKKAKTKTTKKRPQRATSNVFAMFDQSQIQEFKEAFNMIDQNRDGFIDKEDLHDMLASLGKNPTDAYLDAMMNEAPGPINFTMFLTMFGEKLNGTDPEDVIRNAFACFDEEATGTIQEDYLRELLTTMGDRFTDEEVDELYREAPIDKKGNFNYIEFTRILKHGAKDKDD

pTyr levels (NMM-IIA; THP-1, basal and phosphatase-inhibited conditions): decreases pTyr levels | phospho-S1943 of NMM-IIA (NMM-IIA; THP-1, detergent-soluble monomer): increases phospho-S1943
SMILES: Cc1ccc2c(c1)C(=O)C1(O)CCN(c3ccccc3)C1=N2 (racemic) [blebbistatin, (±)-blebbistatin]
in vitro platelets per CD41+ cell vs untreated MKs (MKs): 2.5 fold | cells showing reversal of cytokinesis (BM CD34+-derived cells): ~80% | CPP number soft vs stiff, mean [1]: 0.9±0.1 | MPP number soft vs stiff, mean [1]: 1.0±0.1 | increase of HSC-to-MPP ratio with increasing FN density [1]: > 2 fold | ratio of HSC numbers soft vs stiff, mean [1]: 1.1±0.2
